Several values for one entry are separate records, joined by “and”; a condition that tells them apart may be missing. Equal values may be shown once.
What was measured:
Mushroom tyrosinase = experiment: Tyrosinase inhibition test (mushroom tyrosinase, L-dopa, OD 492 nm); assay type: biochemical; conditions: 10 mM L-dopa, 37° C., 30 min, duplicate
Procedure: Ultraviolet (UV) radiation from the sun is the most important external stimulus for melanin formation leading to skin darkening. Reducing melanin formation in the skin may be achieved by inhibiting multiple steps of the melanin biogenesis process. Tyrosinase is the key regulatory enzyme of melanogenesis. Agents that inhibit tyrosinase will reduce melanin synthesis.
1-Hydroxyl 3,5-bis(4′hydroxyl styryl)benzene (0.0001, 0.001, and 0.01% w/v) was tested for tyrosinase inhibition as follows.
Mushroom tyrosinase samples (Sigma, T7755, 10 U/reaction) were treated with the samples of 1-hydroxyl 3,5-bis(4′hydroxyl styryl)benzene and control samples. Reaction was initiated by addition of 10 mM L-dopa (Research Organics, #2111D) at 37° C. Tyrosinase activity was measured by recording light absorption (optical density) at 492 nm after 30 min for both control samples (no exposure to test compound) and test samples that were exposed to the test compound.
Percent Inhibition of Tyrosinase was related to the reduction in absorption at 492 nm (relative to the control) by the following formula: Percent Inhibition of Tyrosinase=[Tcontrol−Tsample/Tcontrol)]*100 where Tcontrol is the tyrosinase activity of the control and Tsample is the tyrosinase activity in the presence of test compound. Samples were tested in duplicate and Percent Inhibition of Tyrosinase was averaged and standard deviation was reported.

[1] = test system: murine melanoma B16(F10) cells; experiment: Inhibition of UV-induced Melanogenesis test; assay type: cell-based; conditions: for Percent inhibition of UV-induced melanogenesis (mean ± SD): B16(F10), UVB 200 mJ/cm^2, 24 h post UVB
Procedure: One or more samples of B16(F10) cells were prepared and each pre-treated with a test sample followed by UVB exposure as described below. Upon treatment, UVB stimulated melanogenesis in the cells and test compounds were evaluated based on their ability to inhibit or slow down the rate of melanogenesis. The cells were lysed for protein measurement at 595 nm and melanin content at 470 nm. The potency of the test compounds were determined by comparing the % inhibition achieved by the test compounds against the treated control.
On a first day, murine melanoma B16(F10) cells were seeded in 60 mm plates with a density of ˜1 million cells per plate and incubated for […] at 37° C., 5% CO2. On day 2, the cells with a confluency rate of 90-100% were treated with test compound at a predetermined concentration (e.g. 25 mg/mL) for two hours (for test compound samples only) followed by exposure to UVB 200 mJ/cm^2 (for test samples and treated control). The cells were harvested on day 3 (24 h post UVB irradiation for test samples and treated control) and lysed in protein lysis buffer (50 mM Tris, pH 8, 2 mM EDTA, 150 mM NaCl, and 1% TRITON X 100—a nonionic surfactant purchased from BioRad Cat.#: 161-0407), and centrifuged.
The resulting supernatant was mixed well with a protein dye assay (Bio-rad protein assay reagent) and a spectrophotometer (Molecular Devices VERSAmax) was used to determine the optical density (OD) of the sample at 595 nm, which was recorded as the “protein assay OD.” The cell pellet remaining after removal of the supernatant was dissolved in alkaline DMSO buffer, and the resulting solution was similarly tested using a spectrophotometer for melanin absorbance assay at 470 nm. The absorbance was recorded as the “melanin assay OD.”
Control samples of B16(F10) murine melanoma cells were prepared and harvested as indicated above, but without addition of any test sample and without exposure to UVB (untreated control). Other samples were prepared and harvested as indicated above, but without addition of test sample and exposed to UVB as described below (treated control).
Three samples each of the untreated control, treated control, and each test sample were made and the Melanin OD and Protein OD measured for each. The normalized melanin for each untreated control (3 samples), treated control (3 samples) and test sample (3 samples for each test compound) was calculated via the following equation: Normalized Melanin=melanin assay OD/protein assay OD. The averages of the Normalized Melanin of the untreated controls and treated controls were calculated (sum of the three calculated values/3).
The Induction value of the Control (which can be thought of as the UV-induced increase in melanin, without the benefit of any test sample to reduce melanogensis) was determined by subtracting the average Normalized Melanin of untreated control from the average Normalized Melanin of treated control. Similarly, the Induction value of each test sample (which can be thought of as the amount of additional melanin over and above the baseline of the sample not treated with UV) was then calculated by subtracting average Normalized Melanin of untreated control from the Normalized Melanin of the test sample. The Percent Inhibition for each test sample was then calculated via the equation: Percent Inhibition=100×[(Induction value of Control−Induction value with Test Sample)/Induction value of Control].
The average Percent Inhibition was calculated as the sum of the three resulting Inhibition % values for each test sample divided by three.

[2] = test system: murine melanoma B16(F10) cells; experiment: Inhibition of UV-induced Melanogenesis test; assay type: cell-based; conditions: 0.0001%; average of S1 and S2
[3] = test system: MelanoDerm skin epidermal equivalent tissues (NHEK and NHM); experiment: Inhibition of pigmentation in skin epidermal equivalent tissues (MatTek MelanoDerm MEL-300-B); assay type: cell-based, human; conditions: measured day 9, vs vehicle-treated control
Procedure: Skin epidermal equivalent tissues obtained from MatTek's MelanoDerm™ System were used as follows. MatTek's MelanoDerm™ System consists of normal, human-derived epidermal keratinocytes (NHEK) and melanocytes (NHM) which have been cultured to form a multilayered, highly differentiated model of the human epidermis. Specifically, MEL-300-B tissues, each 9 mm in diameter were used in the following tests.
1-Hydroxyl 3,5-bis(4′hydroxyl styryl)benzene and its piperazine salt were prepared in an appropriate vehicle and applied topically to the skin model daily. The experiment lasted for eight days. Measurement was taken on day 9.
The Degree of Lightness for each skin model tissue (L-Value) was measured using a spectrophotometer (Konica Minolta CM-2600d). The ΔL (degree of lightness as compared to vehicle-treated control) for each test sample was calculated using following formula: ΔL=L-value of treated sample−L-value of control sample

[4] = 0.5% topically daily for eight days

Row | Compound | Percent Inhibition of Tyrosinase activity (mean ± standard deviation) (Mushroom tyrosinase; 0.0001% w/v test compound) [%] | Percent Inhibition of Tyrosinase activity (mean ± standard deviation) (Mushroom tyrosinase; 0.001% w/v test compound) [%] | Percent Inhibition of Tyrosinase activity (mean ± standard deviation) (Mushroom tyrosinase; 0.01% w/v test compound) [%] | Percent inhibition of UV-induced melanogenesis (mean ± SD) ([1]; 0.00001% test compound) [%] | Percent inhibition of UV-induced melanogenesis (mean ± SD) ([1]; 0.00005% test compound) [%] | Percent inhibition of UV-induced melanogenesis (mean ± SD) ([1]; 0.0001% test compound) [%] | Induction value with Test sample ([1]; 0.0001%, single test samples S1, S2, Normalized Melanin minus untreated control 0.122, listed as 1-hydroxyl 3,5-bis(4′hydroxyl styryl)benzene—Free Phenol) | Normalized Melanin value (melanin assay OD/protein assay OD) ([1]; 0.0001%, single test samples S1, S2, listed as 1-hydroxyl 3,5-bis(4′hydroxyl styryl)benzene—Free Phenol) | Percent Inhibition for Test sample (Ave) [2] | Degree of Lightness (ΔL) [3, 4] | Degree of Lightness (ΔL) ([3]; 0.1% topically daily for eight days) | Degree of Lightness (ΔL) ([3]; 0.25% topically daily for eight days)
1 | Oc1ccc(/C=C/c2cc(O)cc(/C=C/c3ccc(O)cc3)c2)cc1 [1-Hydroxyl 3,5-bis(4′hydroxylstyryl)benzene] | 3.3 ± 1.95 | 8.21 ± 1.27 | 11.84 ± 3.22 | 18.93 ± 5.92 | 33.27 ± 4.39 | 40.49 ± 2.04 | 0.19 − 0.122 = 0.068 and 0.187 − 0.122 = 0.065 | 0.19 (S1) and 0.187 (S2) | Ave = (39.05 + 41.93)/2 = 40.49% | 4.23 ± 0.64 |  | 
2 | 1-hydroxyl 3,5-bis(4′hydroxyl styryl)benzene - Piperazine salt | 2.03 ± 3.94 | 11.52 ± 3.16 | 16.64 ± 2.76 | 13.93 ± 11.33 | 33.52 ± 1.54 | 55.70 ± 4.44 |  |  |  | 4.60 ± 0.61 | 1.46 ± 0.71 | 2.83 ± 0.41

Source: US8758731B2, “Skin lightening by topical application of 1-hydroxyl 3,5-bis(4′hydroxyl styryl)benzene” (Johnson & Johnson Consumer Companies, Inc., priority 2012, dated 2014)
